Reference: US20130015204A1, “SINGLE-USE CONTAINERS AND USES THEREOF” (priority 2009, published 2013)
Entries after “also recorded” stand apart in the source; their conditions may differ. Where two headings read alike, the source gives them in different places.

Columns and labels:
[1] = Heat stability studies: HPLC peak area change after heating, hot water or hot coffee; format: physicochemical; conditions: for Effect of dilution with hot water and coffee on vitamin concentration: dilution with hot water or hot coffee, 80° C. or 100° C.; for Effect of heating solutions on vitamin concentration: heating to either 80° C. or 100° C. for 15 minutes; for % Deviation: vs control; for Vitamin degradation, Water 80° C.: diluted with hot water 80° C.; for Vitamin degradation, Water 100° C.: diluted with hot water 100° C.; for Vitamin degradation, Heat 80° C.: solution heated 80° C.; for Vitamin degradation, Heat 100° C.: solution heated 100° C.
Experimental: Vitamins were divided into two groups, depending on their solubility. “High concentration” vitamins were sufficiently soluble to be detected by the. HPLC analysis after 1/250 dilution. “Low concentration” vitamins were not sufficiently soluble and could not be detected after 1/250 dilution and therefore a different procedure was adopted for these compounds as described below.
High concentration vitamin (B1, B3, B5, B6) solutions
Solutions were prepared immediately before use in duplicate, using four different methods, described below: a. Dilute 1 mL of each standard solution to 250 mL with Milli-Q water at room temperature (control sample) […]
b. […] Then take a 1 mL sample from each tube and dilute to 250 mL with Milli-Q water at room temperature. c. Dilute 1 mL of each solution to 250 mL with hot water (80° C. or 100° C.). Leave for 15 minutes, then take a sample and cool immediately to room temperature. d. Dilute 1 mL of each solution to 250 mL with hot coffee (80° C. or 100° C.). Leave for 15 minutes, then take a sample and cool immediately to room temperature.
Low Concentration Vitamin (B2, B7, B9, B12) Solutions
Standard solutions were freshly prepared with Milli-Q water as described above. The test solutions below were then immediately prepared in duplicate: a. Use undiluted (control sample)
HPLC conditions were as described above.
(§1) The percentage change in individual vitamin concentrations relative to the control sample was calculated as: 100×(Atest−Acontrol)/Acontrol, where Atest and Acontrol are peak area ratios (analyte/intemal standard) for the test and control solutions respectively.
All statistical analyses were performed with SPSS 16.

[2] = water; cited from earlier work
[3] = Long term storage stability studies: HPLC, solutions stored at RT and 4° C. for up to 4 months; conditions: for Long term storage stability of vitamin solution: stored at RT or 4° C., 4 month period; for Time to achieve significant falls at 4° C.: aqueous solution stored at 4° C.; for Time to achieve significant falls at RT: aqueous solution stored at RT
Experimental: Heat was applied by different methods, including placing the solution in a test tube in a bath of hot water (80° C. or 100° C.) for 15 minutes, or by mixing a concentrated solution with hot water or hot coffee (80° C. or 100° C. for both) for an equivalent time. Long term stability studies were carried out by storing individual vitamin solutions at room temperature and at 4° C. for up to 4 months and sampling these solutions at various intervals. Degradation was assessed by the change in peak area of the HPLC peak specific to each particular compound.
Vitamin solutions were prepared as for the Heat Stability Studies.
Replicate aliquots of these solutions were placed in four 15 mL Falcon tubes. Two of these tubes were stored on a shelf at room temperature (RT) in the laboratory and two in the cold room (4° C.).
At 0, 0.5, 1, 1.5, 2, 3.5, and 4 months, samples were taken from each vial for
HPLC analysis. The high concentration vitamin samples (vitamins BI, B3, B5, and B6) were diluted to 1:250 with Milli-Q water before injection and the low concentration vitamin samples (vitamins B2, B7, B9, and B12) were injected undiluted.
Samples from each of the duplicate solutions described above were injected onto the HPLC in duplicate. HPLC conditions were as described above.
Duplicate injections of the two samples were made and the mean of the four results was reported.
as §1
For the heat stability studies, statistical analysis was performed by Students t-test. For the storage stability studies, statistical analysis was performed by univariate ANOVA (General Linear Model). All statistical analyses were performed with SPSS 16.

[4] = high concentration vitamin solution, matrix coffee: diluted 1/250 with hot coffee 80° C., 15 minutes
[5] = high concentration vitamin solution, matrix coffee: diluted 1/250 with hot coffee 100° C., 15 minutes
[6] = high concentration vitamin solution, matrix heated: tube in hot water 80° C., 15 minutes
[7] = high concentration vitamin solution, matrix heated: tube in hot water 100° C., 15 minutes
[8] = high concentration vitamin solution, matrix hot water: diluted 1/250 with hot water 80° C., 15 minutes
[9] = high concentration vitamin solution, matrix hot water: diluted 1/250 with hot water 100° C., 15 minutes
[10] = greatest percentage change over the 4 month testing period, † non-significant, * significant, ‡ transient at 2 weeks
[11] = storage at RT and 4° C. for up to 4 months
[12] = low concentration vitamin solution, undiluted, heated to 80° C., 15 minutes
[13] = low concentration vitamin solution, undiluted, heated to 100° C., 15 minutes
[14] = up to 4 months, — = no significant fall

Row | Compound | Effect of dilution with hot water and coffee on vitamin concentration [1] | Effect of heating solutions on vitamin concentration [1] | % Deviation [1, 4] [%] | % Deviation [1, 5] [%] | % Deviation [1, 6] [%] | % Deviation [1, 7] [%] | % Deviation [1, 8] [%] | % Deviation [1, 9] [%] | Aq. solubility [2] [mg/mL] | Vitamin degradation, Storage 4° C. [3, 10] | Vitamin degradation, Storage RT [3, 10] | Comment (long term storage stability) [3, 11] | Long term storage stability of vitamin solution [3] | % Deviation [1, 12] [%] | % Deviation [1, 13] [%] | Time to achieve significant falls at 4° C. [3, 14] [weeks] | Vitamin degradation, Heat 80° C. ([1]; summary, 15 minutes) | Vitamin degradation, Heat 100° C. ([1]; summary, 15 minutes) | other results
1 | Cc1ncc(C[n+]2csc(CCO)c2C)c(N)n1 [Vitamin B1, Thiamine] | unaffected | not affected | 0.46 | 0.58 | 0.33 | 0.22 | −0.04 | −0.26 | 500 | † −2.8% | † −2.4% | Stable for 4 months | stable; also recorded: no statistically significant degradation |  |  |  |  |  | 
2 | Cc1cc2nc3c(=O)[nH]c(=O)nc-3n(C[C@H](O)[C@H](O)[C@H](O)CO)c2cc1C [Vitamin B2, riboflavin] |  | not significantly affected |  |  |  |  |  |  |  | −33.6% * | −24.7% * |  | varying levels of degradation; also recorded: little further degradation; also recorded: Significant degradation | 1.5 | 2.85 | 2 |  |  | Time to achieve significant falls at RT [3, 14]: 2 weeks; Degradation after 2 weeks at 4° C. ([3]; storage at 4° C.): 33.6%; Comment: Falls sustained to ([3]; storage at RT and 4° C.): 4 months; Degradation after 2 weeks at RT ([3]; storage at RT): 24.7%
3 | NC(=O)c1cccnc1 [Vitamin B3, niacinamide] | Statistically significant reductions | not affected | −3.72 | −3.62 | −0.24 | −0.86 | 0.33 | 0.4 |  | † −1.1% | † −1.8% | Stable for 4 months | stable; also recorded: no statistically significant degradation |  |  |  | †† (non-significant reductions in vitamin concentrations of <2% in response to heat treatment) | †† (non-significant reductions in vitamin concentrations of <2% in response to heat treatment) | Vitamin degradation, Water 80° C. ([1]; summary, 15 minutes): †† (non-significant reductions in vitamin concentrations of <2% in response to heat treatment); Vitamin degradation, Water 100° C. ([1]; summary, 15 minutes): †† (non-significant reductions in vitamin concentrations of <2% in response to heat treatment)
4 | Cc1ncc(CO)c(CO)c1O.Cl [Vitamin B6, pyroxidine hydrochloride] | unaffected | not affected | −0.63 | −1.47 | 0.05 | −0.28 | 1.39 | 1.64 |  |  |  |  |  |  |  |  |  |  | Comment (long term storage stability) [3]: Stable for 4 months; Vitamin degradation, Storage 4° C. [3]: † −2.5%; Vitamin degradation, Storage RT [3]: † −1.5%
5 | O=C(O)CCCC[C@@H]1SC[C@@H]2NC(=O)N[C@@H]21 [Vitamin B7, biotin] |  | not significantly affected |  |  |  |  |  |  | 0.22 | −27.4% ‡ | −15.9% ‡ | Stable for 4 months | varying levels of degradation; also recorded: no statistically significant degradation; also recorded: transient reductions | −0.47 | −1.89 |  | †† (non-significant reductions in vitamin concentrations of <2% in response to heat treatment) | †† (non-significant reductions in vitamin concentrations of <2% in response to heat treatment) | 
6 | Nc1nc2ncc(CNc3ccc(C(=O)N[C@@H](CCC(=O)O)C(=O)O)cc3)nc2c(=O)[nH]1 [Vitamin B9, folic acid] |  | Statistically significant reductions |  |  |  |  |  |  | 0.0016 | −13.7% * | −100.0% * | At RT, undetectable | varying levels of degradation; also recorded: Significant degradation | −1.92 | −2.26 | 2 |  |  | Time to achieve significant falls at RT [3, 14]: 2 weeks; Comment: At 4° C., significant change only at ([3]; storage at 4° C.): 2 weeks.; Further fall in levels at 1 month ([3]; storage at 4° C., 1 month, beyond the fall at 2 weeks): 5.7%; Degradation after 2 weeks at 4° C. ([3]; storage at 4° C.): 8.0%; Maximum degradation on storage at 4° C. ([3]; storage at 4° C., 4 months): 13.7%; Degradation after 2 weeks at RT ([3]; storage at RT): 10.0%; Level on storage at RT after the 2 week sample ([3]; storage at RT, sampling times from 1 month to 4 months): undetectable; also recorded: complete elimination
7 | calcium (+)-pantothenate [Vitamin B5] | unaffected | Statistically significant reductions | 1.78 | 0.31 | −2.78 | −2.27 | −0.77 | −1.15 |  | −3.9% * | −3.3% * |  | varying levels of degradation; also recorded: significant degradation |  |  | 2 |  |  | Vitamin degradation, Coffee 80° C. ([1]; summary, diluted with hot coffee 80° C., 15 minutes): †† (non-significant reductions in vitamin concentrations of <2% in response to heat treatment); Vitamin degradation, Coffee 100° C. ([1]; summary, diluted with hot coffee 100° C., 15 minutes): †† (non-significant reductions in vitamin concentrations of <2% in response to heat treatment); Vitamin degradation, Water 80° C. ([1]; summary, 15 minutes): †† (non-significant reductions in vitamin concentrations of <2% in response to heat treatment); Vitamin degradation, Water 100° C. ([1]; summary, 15 minutes): †† (non-significant reductions in vitamin concentrations of <2% in response to heat treatment); Time to achieve significant falls at RT ([3]; up to 4 months): 1.5 months; Comment: Falls sustained to ([3]; storage at RT and 4° C.): 4 months; Comment: size of falls at all times ([3]; storage at RT and 4° C., up to 4 months): < 5%; Degradation at any time for either temperature ([3]; storage at RT or 4° C., entire 4 month test period): less than 4%
8 | cyanocobalamin [Vitamin B12] |  | not significantly affected |  |  |  |  |  |  | 0.0125 | † −1.4% | † −1.2% |  | stable; also recorded: no statistically significant degradation | −0.14 | −0.18 |  | †† (non-significant reductions in vitamin concentrations of <2% in response to heat treatment) | †† (non-significant reductions in vitamin concentrations of <2% in response to heat treatment) | 
